A value given as a limit tells only on which side of the number the result lay.

The test system of the experiment is MOLM13 cells. The experiment in a line: Growth inhibition of CDK9-positive cell line MOLM13 in vitro (CCK8/MTT assay). It counts as cell-based, human. The settings on record: Homo sapiens, MOLM-13; MOLM13 cells, cultured 3 to 6 days, CCK8; read-out: IC50 of the compound for inhibiting cell growth, MOLM13 cells. The protocol:
1. MOLM13 cell line and cell culture MOLM13 is a CDK9-positive human acute myeloid leukemia cell line from DMSZ. Suspension culture was carried out in RPMI1640 (Gibco) medium with 10% fetal bovine serum (Gibco), 1% penicillin-streptomycin and 2 mM glutamine.
Suspended MOLM-13 cells in logarithmic growth phase were collected by centrifugation (1700 rpm, 3 minutes), the supernatant was discarded, and the cells were counted. A solution with a cell concentration of 2×10^5 cells per milliliter was formulated and inoculated in a 96-well plate (Corning) with 100 microliters per well. The plate was incubated at 37° C., 5% CO2 overnight. On the next day, the test compound was added to the cultured cells in two parallel wells. […]
The present compound and the control compounds were respectively dissolved in DMSO (Sigma).
When the solvent control well became dark yellow, the OD450 nm absorption value was measured, and the cell growth rate was calculated according to the following formula. Cell growth rate %=100*(T−T0)/(C−T0), wherein T=the optical density value of the drug-treated well—the optical density value of the blank control well, T0=the optical density value of the well before drug treatment—the optical density value of the blank control well, C=the optical density value of the solvent control well—the optical density value of the blank control well. […] The assay was repeated three times, and the data was subjected to a biological statistical analysis.
On the technique in general: Formazan colour is commonly taken as a measure of viable cells.
In general, IC50 refers to the midpoint of a concentration-inhibition curve. As to `COC1CCN(c2ccc(Nc3nccc(-n4cc(C(N)=O)c5ccccc54)n3)cc2)CC1` [Compound 67, 1-{2-[4-(4-methoxy-piperidin-1-yl)-phenylamino]-pyrimidin-4-yl}-1H-indole-3-carboxamide], the half-inhibitory concentration (IC50) fell in the range of 0.01 to 0.1 µM.

As to `COc1ccc2c(c1)c(C(N)=O)cn2-c1nc(Nc2cccc(N3CCN(C4CCOC4)CC3)c2)ncc1F` (stereo not drawn) [Compound 151, 1-(5-fluoro-2-{3-[4-(tetrahydro-furan-3-yl)-piperazin-1-yl]-phenylamino}-pyrimidin-4-yl)-5-methoxy-1H-indole-3-carboxamide], the half-inhibitory concentration (IC50) lay within 0.001 to 0.01 µM.

Take `CNC(=O)c1cn(-c2ccnc(Nc3ccc(C4CCN(C)CC4)cc3)n2)c2ccccc12` [Compound 104, 1-{2-[4-(1-methyl-piperidin-4-yl)-phenylamino]-pyrimidin-4-yl}-1H-indole-3-carboxmethylamide]: the half-inhibitory concentration (IC50) is 0.01 to 0.1 µM.

For `CN1CCN(c2ccc(Nc3nccc(-n4cc(C(N)=O)c5ccccc54)n3)cc2C#N)CC1` [Compound 49, 1-{2-[3-cyano-4-(4-methyl-piperazin-1-yl)-phenylamino]-pyrimidin-4-yl}-1H-indole-3-carboxamide], the IC50 lay in the range of 0.001 to 0.01 µM.

In the case of `CN1CCN(c2cc(Nc3ncc(Cl)c(-n4cc(C(N)=O)c5ccccc54)n3)ccc2F)CC1` [Compound 119, 1-{5-chloro-2-[4-fluoro-3-(4-methyl-piperazin-1-yl)-phenylamino]-pyrimidin-4-yl}-1H-indole-3-carboxamide], the half-maximal inhibitory concentration (IC50) lay within 0.01 to 0.1 µM.

Consider `NC(=O)c1cn(-c2ccnc(Nc3ccc(N4CCNCC4)cc3)n2)c2cccc(F)c12` [Compound 29, 4-fluoro-1-[2-(4-piperazin-1-yl-phenylamino)-pyrimidin-4-yl]-1H-indole-3-carboxamide], for which the IC50 was 0.01 to 0.1 µM.

`COc1ccnc(Nc2nccc(-n3cc(C(N)=O)c4ccccc43)n2)c1` [Compound 131, 1-[2-(4-methoxy-pyridin-2-ylamino)-pyrimidin-4-yl]-1H-indole-3-carboxamide]: the concentration for half-maximal inhibition (IC50) was above 1 µM.

In the case of `NC(=O)c1cn(-c2ccnc(Nc3ccc(N4CCNCC4)cc3)n2)c2cc(F)ccc12` [Compound 30, 6-fluoro-1-[2-(4-piperazin-1-yl-phenylamino)-pyrimidin-4-yl]-1H-indole-3-carboxamide], the concentration for half-maximal inhibition (IC50) fell in the range of 0.001 to 0.01 µM.

On to `CN1CCN(c2ccc(Nc3ncc(Cl)c(-n4cc(C(N)=O)c5ccccc54)n3)cc2F)CC1` [Compound 61, 1-{5-chloro-2-[3-fluoro-4-(4-methyl-piperazin-1-yl)-phenylamino]-pyrimidin-4-yl}-1H-indole-3-carboxamide], for which the IC50 is 0.001 to 0.01 µM.

Take `CCN1CCN(c2cccc(Nc3ncc(F)c(-n4cc(C(N)=O)c5ccccc54)n3)c2)CC1` [Compound 142, 1-{2-[3-(4-ethyl-piperazin-1-yl)-phenylamino]-5-fluoro-pyrimidin-4-yl}-1H-indole-3-carboxamide]: the half-inhibitory concentration (IC50) is below 0.001 µM.

Turning to `CNC(=O)N1CCN(c2cccc(Nc3ncc(F)c(-n4cc(C(N)=O)c5ccccc54)n3)c2)CC1` [Compound 172, 1-{5-fluoro-2-[3-(4-methylcarbamoyl-piperazin-1-yl)-phenylamino]-pyrimidin-4-yl}-1H-indole-3-carboxamide], the IC50 was 0.01 to 0.1 µM.

For the compound `CN(C)CCN(C)c1ccc(Nc2nccc(-n3cc(C(N)=O)c4ccccc43)n2)c(Br)c1` [Compound 78, 1-(2-{2-bromo-4-[(2-dimethylamino-ethyl)-methyl-amino]-phenylamino}-pyrimidin-4-yl)-1H-indole-3-carboxamide], the IC50 lay in the range of 0.1 to 1 µM.

With `COc1ccc(Nc2nccc(-n3cc(C(N)=O)c4ccccc43)n2)cc1` [Compound 17, 1-[2-(4-methoxy-phenylamino)-pyrimidin-4-yl]-1H-indole-3-carboxamide], the IC50 lay in the range of 0.1 to 1 µM.

Regarding `CN(CCN1CCCC1)c1ccc(Nc2nccc(-n3cc(C(N)=O)c4ccccc43)n2)cc1F` [Compound 92, 1-(2-{3-fluoro-4-[methyl-(2-pyrrolidin-1-yl-ethyl)-amino]-phenylamino}-pyrimidin-4-yl)-1H-indole-3-carboxamide], the IC50 was in the range of 0.1 to 1 µM.

Turning to `Cc1cc(Nc2nccc(-n3cc(C(N)=O)c4ccccc43)n2)ccc1N1CCN(C)CC1` [Compound 50, 1-{2-[3-methyl-4-(4-methyl-piperazin-1-yl)-phenylamino]-pyrimidin-4-yl}-1H-indole-3-carboxamide], the 50% inhibitory concentration (IC50) fell in the range of 0.001 to 0.01 µM.

For the compound `CC(=O)N1CCN(CCN(C)c2ccc(Nc3nccc(-n4cc(C(N)=O)c5ccccc54)n3)cc2)CC1` [Compound 74], the IC50 is 0.01 to 0.1 µM.

Take `Cc1cc(Nc2nccc(-n3cc(C(N)=O)c4cccnc43)n2)ccc1N1CCN(C)CC1` [Compound 136]: the IC50 was 0.1 to 1 µM.

On to `CN1CCN(c2ccc(Nc3ncc(F)c(-n4cc(C(N)=O)c5ccccc54)n3)cc2F)CC1` [Compound 54, 1-{5-fluoro-2-[3-fluoro-4-(4-methyl-piperazin-1-yl)-phenylamino]-pyrimidin-4-yl}-1H-indole-3-carboxamide], for which the IC50 was 0.001 to 0.01 µM.

For `COc1cc(Nc2ncc(Cl)c(-n3cc(C(N)=O)c4ccccc43)n2)ccc1N(C)CCN1CCCC1` [Compound 99, 1-(5-chloro-2-{3-methoxy-4-[methyl-(2-pyrrolidin-1-yl-ethyl)-amino]-phenylamino}-pyrimidin-4-yl)-1H-indole-3-carboxamide], the 50% inhibitory concentration (IC50) lay in the range of 0.001 to 0.01 µM.

For the compound `Cc1cnc(Nc2cccc(N3CCN(C)CC3)c2)nc1-n1cc(C(N)=O)c2ccccc21` [Compound 124, 1-{5-methyl-2-[3-(4-methyl-piperazin-1-yl)-phenylamino]-pyrimidin-4-yl}-1H-indole-3-carboxamide], the IC50 was 0.001 to 0.01 µM.

With `CN(C)CCNc1ccc(Nc2nccc(-n3cc(C(N)=O)c4ccccc43)n2)cc1` [Compound 8, 1-{2-[4-(2-dimethylamino-ethylamino)-phenylamino]-pyrimidin-4-yl}-1H-indole-3-carboxamide], the half-inhibitory concentration (IC50) is 0.01 to 0.1 µM.

Regarding `CC(C)Oc1cc(Nc2nccc(-n3cc(C(N)=O)c4ccccc43)n2)ccc1N(C)CCN(C)C` [Compound 81, 1-(2-{4-[(2-dimethylamino-ethyl)-methyl-amino]-3-isopropoxy-phenylamino}-pyrimidin-4-yl)-1H-indole-3-carboxamide], the IC50 is 0.001 to 0.01 µM.

`NC(=O)c1cn(-c2ccnc(Nc3ccc(F)c([N+](=O)[O-])c3)n2)c2ccccc12` [Compound 6, 1-[2-(4-fluoro-3-nitro-phenylamino)-pyrimidin-4-yl]-1H-indole-3-carboxamide]: the 50% inhibitory concentration (IC50) is above 1 µM.

On to `NC(=O)c1cn(-c2nc(Nc3cccc(N4CCN(C(=O)C5CCCC5)CC4)c3)ncc2F)c2ccccc12` [Compound 171], for which the IC50 lay within 0.01 to 0.1 µM.

For the compound `CN1CCCN(c2cccc(Nc3nccc(-n4cc(C(N)=O)c5ccccc54)n3)c2)CC1` [Compound 112, 1-{2-[3-(4-methyl-[1,4]homopiperazin-1-yl)-phenylamino]-pyrimidin-4-yl}-1H-indole-3-carboxamide], the IC50 lay in the range of 0.001 to 0.01 µM.

Turning to `NC(=O)c1cn(-c2nc(Nc3cccc(N4CCN(C(=O)C5CCCN5)CC4)c3)ncc2F)c2ccccc12` (stereo not drawn) [Compound 169, 1-(5-fluoro-2-{3-[4-(pyrrolidin-2-carbonyl)-1-piperazin-1-yl]-phenylamino}-pyrimidin-4-yl)-1H-indole-3-carboxamide], the IC50 fell in the range of 0.001 to 0.01 µM.

With `CN(C)CCN(C)c1ccc(Nc2ncc(F)c(-n3cc(C(N)=O)c4ccccc43)n2)cc1` [Compound 84, 1-(2-{4-[(2-dimethylamino-ethyl)-methyl-amino]-phenylamino}-5-fluoro-pyrimidin-4-yl)-1H-indole-3-carboxamide], the concentration for half-maximal inhibition (IC50) lay within 0.001 to 0.01 µM.

Regarding `NC(=O)c1cn(-c2ccnc(Nc3ccc(NCCN4CCCC4)cc3)n2)c2ccccc12` [Compound 13, 1-{2-[4-(2-pyrrolidin-1-yl-ethylamino)-phenylamino]-pyrimidin-4-yl}-1H-indole-3-carboxamide], the IC50 lay within 0.01 to 0.1 µM.

Take `CCN1CCN(c2ccc(Nc3ncc(Cl)c(-n4cc(C(N)=O)c5ccccc54)n3)cc2C)CC1` [Compound 58, 1-{5-chloro-2-[4-(4-ethyl-piperazin-1-yl)-3-methyl-phenylamino]-pyrimidin-4-yl}-1H-indole-3-carboxamide]: the IC50 is below 0.001 µM.

Take `C=CC(=O)N1CCN(c2ccc(Nc3nccc(-n4cc(C(N)=O)c5ccccc54)n3)cc2C)CC1` [Compound 64, 1-{2-[4-(4-acryloyl-piperazin-1-yl)-3-methyl-phenylamino]-pyrimidin-4-yl}-1H-indole-3-carboxamide]: the IC50 fell in the range of 0.01 to 0.1 µM.

For `COCCN1CCN(c2ccc(Nc3nccc(-n4cc(C(N)=O)c5ccccc54)n3)cc2)CC1` [Compound 26, 1-(2-{4-[4-(2-methoxy-ethyl)-piperazin-1-yl]-phenylamino}-pyrimidin-4-yl)-1H-indole-3-carboxamide], the 50% inhibitory concentration (IC50) lay within 0.01 to 0.1 µM.

On to `COc1cnc(Nc2cccc(N3CCN(C)CC3)c2)nc1-n1cc(C(N)=O)c2ccccc21` [Compound 123, 1-{5-methoxy-2-[3-(4-methyl-piperazin-1-yl)-phenylamino]-pyrimidin-4-yl}-1H-indole-3-carboxamide], for which the IC50 was 0.001 to 0.01 µM.

As for `CN(C)c1ccc(Nc2nccc(-n3cc(C(N)=O)c4ccccc43)n2)cc1` [Compound 75, 1-[2-(4-dimethylamino-phenylamino)-pyrimidin-4-yl]-1H-indole-3-carboxamide], the half-maximal inhibitory concentration (IC50) is 0.1 to 1 µM.

Values taken from patent US20210101881A1 (Ancureall Pharmaceutical (Shanghai) Co., Ltd., priority 2018, published 2021).
